The values below come from US20230263822A1, “MODULATION OF FACTOR 11 EXPRESSION” (Ionis Pharmaceuticals, Inc., priority 2008, published 2023).

One data set relates to mouse Factor 11 mRNA. The data set is described as follows: Sense-oligonucleotide antidote: Factor 11 mRNA in liver (Example 23). The format is in vivo, BALB/c mice. The procedure: The effect of the specific sense oligonucleotide to ISIS 404071 as an antidote was tested in BALB/c mice. In a first cohort, ISIS 404071 was administered subcutaneously to BALB/c mice twice a week for three weeks at a dose of 40 mg/kg. In a second cohort, ISIS 404057 was administered subcutaneously to BALB/c mice twice a week for three weeks at a dose of 40 mg/kg. The ISIS 404071 specific antidote, ISIS 418026 ([…]; complementary to ISIS 404071), incorporated herein as SEQ ID NO: 13, was administered to both cohorts subcutaneously in a single injection of 90 mg/kg 48 hours after the final treatment of ISIS 404071 or 404057. In a third cohort, ISIS 404071 was administered subcutaneously to BALB/c mice twice a week for three weeks at a dose of 40 mg/kg. Following the last treatment of ISIS 404071, mice were injected subcutaneously injected with PBS. In a fourth cohort, ISIS 404057 was administered subcutaneously to BALB/c mice twice a week for three weeks at a dose of 40 mg/kg. Following the last treatment of ISIS 404057, mice were injected subcutaneously injected with PBS. Following antidote administration, a set of 4 mice from each cohort were sacrificed at 12 hours, 1 day, 2 days, 3 days, 7 days, and 14 days. Whole liver was collected for RNA analysis and PPP was collected for aPTT analysis.
RNA was extracted from liver tissue for real-time PCR analysis of Factor 11. Results are presented as percent inhibition of Factor 11, relative to PBS control.

A short description of data set [1]: Collagenase-induced intracerebral hemorrhage model: hemorrhage volume, neurologic deficit score, mortality (Example 25). The format is in vivo, BALB/c mice. The procedure:
In a first cohort, ISIS 404071 was administered subcutaneously to BALB/c mice twice a week for two weeks at a dose 40 mg/kg. […] In a third cohort, ISIS 421208 ([…], 8 mismatches to murine Factor 11, incorporated herein as SEQ ID NO: 14) was administered subcutaneously to BALB/c mice twice a week for two weeks at a dose 40 mg/kg. In a fourth cohort, PBS was administered to BALB/c mice twice a week for two weeks.
Two days after receiving their final dose, all mice in all cohorts were anesthetized with […] of avertin. Next, the mice were injected at −1 mm AP, 1 mm R ML, −4 mm DV from bregma flat skull with a 10 μL Hamilton syringe containing 0.075 U collagenase (150 U/mL). Collagenase was delivered over 5 minutes and the needle was kept in place for an additional 5 minutes to prevent reflux. The mice were then analyzed for hemorrhagic size, neurologic deficit score, and mortality.
Table 37 presents the hemorrhage volume detected in mice after collagenase treatment, Table 38 presents the neurologic deficit score of the mice, and Table 39 presents the mortality rate of the mice. Neurological deficit is measured by a standard scoring system where no deficiency is zero and severe deficit is five.

For data set [2] the following is noted: rat, in vivo, sc, 50 mg/kg.
For data set [3] the following is noted: rat, in vivo, sc, 50 mg/kg. This is another data set of the same source.
The conditions of data set [4]: rat, in vivo, sc, 50 mg/kg. The source holds these as a separate data set.
Another data set deals with blood coagulation. Kind of data set: PT and aPTT assay in platelet poor plasma (Example 10). The format is in vivo. The note with it: BALB/c mice. The procedure:
BALB/c mice were injected with 5 mg/kg, 10 mg/kg, 25 mg/kg, or 50 mg/kg of ISIS 404057 or ISIS 404071 twice a week for 3 weeks. A control group of mice was injected with phosphate buffered saline (PBS) twice a week for 3 weeks. Mice were sacrificed 5 days after receiving the last dose. Whole liver was harvested for RNA analysis and plasma was collected for clotting analysis (PT and aPTT) and protein analysis.
Prothrombin Time (PT) and Activated Partial Thromboplastin Time (aPTT) were measured using platelet poor plasma (PPP) from mice treated with ISIS 404057 and ISIS 404071. PT and aPTT values provided in Table 18 are reported as International Normalized Ratio (INR) values. INR values for PT and aPTT were determined by dividing the PT or aPTT value for each experimental group (i.e. 5 mg/kg, 10 mg/kg, 25 mg/kg, and 50 mg/kg treatment with ISIS 404057 or ISIS 404071) by the PT or aPTT for the PBS treated group. This ratio was then raised to the power of the International Sensitivity Index (ISI) of the tissue factor used.

Where [5] appears, read: 5 mg/kg twice a week for 3 weeks.
The mark [6] stands for this setting: 10 mg/kg twice a week for 3 weeks.
Setting [7] is: 25 mg/kg twice a week for 3 weeks.
Where [8] appears, read: 50 mg/kg twice a week for 3 weeks.
Where [9] appears, read: 5-50 mg/kg twice a week for 3 weeks.

Strand notation (5' to 3'): a small letter for the sugar, then the base; units joined by * are phosphorothioate-linked, units joined directly phosphodiester-linked; [ ] holds rarer units or linkages, { } end groups; capitals alone tell only the bases. e = 2'-O-(2-methoxyethyl) (MOE); [5mC] = 5-methylcytosine; d = 2'-deoxy (DNA)

As for “ISIS 418026: ISIS 404071 specific antidote, CCTCTGAAAGTGGATTACCA; complementary to ISIS 404071 (listed as DNA, chemistry not given here)”, the “inhibition of Factor 11 mRNA expression in ISIS 404057 treated mice” value with mouse Factor 11 mRNA (BALB/c mice, ISIS 404057 40 mg/kg then ISIS 418026 90 mg/kg) was “had no effect on inhibition of Factor 11 mRNA expression”.

For the substance “ISIS 421208: TCGGAAGCGACTCTTATATG, 8 mismatches to murine Factor 11 (listed as DNA, chemistry not given here) [reference compound]”, the “Hemorrhagic volume after collagenase treatment” value in data set [1] (40 mg/kg s.c. twice a week for two weeks) is 41 mm^3. Moreover, the “Neurologic Deficit Score after collagenase treatment” value in data set [1] (40 mg/kg s.c. twice a week for two weeks, score zero (no deficiency) to five (severe deficit)) came to 2.0. The “% mortality after collagenase treatment” value in data set [1] (ISIS oligonucleotides 40 mg/kg s.c., warfarin 2 mg/kg intraperitoneally, twice a week for two weeks) is recorded as 0%.

In data set [2], “ISIS 416825: 5-10-5 MOE gapmer GCCCTTCATGTCTAGGTCCA (sugars from the 5' end e5 d10 e5, backbone and methylation of C not given here)” yielded an ALT of 89 IU/L, an AST of 17 IU/L, an Albumin of 2 and a Bilirubin of 4 mg/dL. For the same substance, in data set [3], the BUN came to 7 mg/dL and the Creatinine was determined as 17 mg/dL. Further, in data set [4], the HCT amounted to 2%, the MCH turned out to be 2, the MCHC was 4% and the MCV turned out to be 4. Moreover, in data set [4], the Platelets is given as 6 10^3/μL, the RBC is on record as 2, the WBC amounted to 22 nL⁻¹ and the hemoglobin is reported as 2 g/dL. For the same substance, in data set [4], the lymphocytes was determined as 3%, the monocytes turned out to be 15% and the neutrophils was 25%.

As to “ISIS 404057: antisense oligonucleotide targeted to murine Factor 11 mRNA, TCCTGGCATTCTCGAGCATT, target start site 487 (antisense eT*e[5mC]*e[5mC]*eT*eG*dG*d[5mC]*dA*dT*dT*d[5mC]*dT*d[5mC]*dG*dA*eG*e[5mC]*eA*eT*eT)”, the “PT INR” value in the data set on blood coagulation (setting [5]) amounted to 1.00; in the data set with blood coagulation (setting [6]) it was 0.94; with blood coagulation (setting [7]), 1.02; with blood coagulation (setting [8]), 1.00. Also, the “aPTT INR” value in the data set on blood coagulation (setting [5]) stood at 1.07; with blood coagulation (setting [6]), 1.19; in the data set on blood coagulation (setting [7]) it was 1.27; with blood coagulation (setting [8]), 1.37. Further, the “PT” value in the data set with blood coagulation (setting [9]) is on record as “not significantly prolonged”. In the data set on blood coagulation (setting [9]), the “aPTT” value is recorded as “prolonged in a dose-dependent manner”. Further, in the data set on mouse Factor 11 mRNA (3 days after antidote/PBS, antisense 40 mg/kg s.c. twice a week for three weeks, ISIS 418026 90 mg/kg single injection where given), the “Percent inhibition of mouse Factor 11 mRNA compared to PBS control” value was 95%.

“ISIS 416826: 5-10-5 MOE gapmer ATGCCCTTCATGTCTAGGTC (sugars from the 5' end e5 d10 e5, backbone and methylation of C not given here)”: in data set [2], the ALT was found to be 611 IU/L, the AST worked out at 104 IU/L, the Albumin is given as 6 and the Bilirubin worked out at 115 mg/dL. Also, in data set [3], the BUN is 25 mg/dL and the Creatinine is recorded as 6 mg/dL. In addition, in data set [4], the HCT is recorded as 7%, the MCH was 3, the MCHC is 4% and the MCV is recorded as 6. Moreover, in data set [4], the Platelets is 11 10^3/μL, the RBC was 5, the WBC was 7 nL⁻¹ and the hemoglobin stood at 7 g/dL. In data set [4], this substance came in with a lymphocytes of 5%, a monocytes of 7% and a neutrophils of 30%.

In data set [2], “ISIS 416999: MOE gapmer, nucleobases 1275 to 1318 of SEQ ID NO: 1 (Table 8) (antisense GCACAGTTTCTGGCAGGCCT; MOE gapmer, wing and gap sizes not given here)” registered an ALT of 92 IU/L, an AST of 28 IU/L, an Albumin of 5 and a Bilirubin of 54 mg/dL. In data set [3], this substance yielded a BUN of 2 mg/dL and a Creatinine of 4 mg/dL. In data set [4], this substance registered an HCT of 5%, an MCH of 3, an MCHC of 1% and an MCV of 2. Also, in data set [4], the Platelets is 12 10^3/μL, the RBC is given as 5, the WBC was found to be 12 nL⁻¹ and the hemoglobin is given as 6 g/dL. In data set [4], this substance came in with a lymphocytes of 3%, a monocytes of 20% and a neutrophils of 23%.

In data set [2], “ISIS 416892: 3-14-3 MOE gapmer GCCCTTCATGTCTAGGTCCA (sugars from the 5' end e3 d14 e3, backbone and methylation of C not given here)” yielded an ALT of 113 IU/L, an AST of 183 IU/L, an Albumin of 8 and a Bilirubin of 1 mg/dL. For the same substance, in data set [3], the BUN amounted to 188 mg/dL and the Creatinine came to 1 mg/dL. In data set [4], this substance showed an HCT of 13%, an MCH of 2, an MCHC of 0% and an MCV of 1. Further, in data set [4], the Platelets was 66 10^3/μL, the RBC came out at 12, the WBC was determined as 68 nL⁻¹ and the hemoglobin amounted to 14 g/dL. In data set [4], this substance showed a lymphocytes of 18%, a monocytes of 58% and a neutrophils of 92%.
